US11969408B2, “Method for improving mitophagy in subjects” (Amazentis SA, priority 2017, dated 2024)

Tests used:
Type in all cases: in vivo, human
[1] = tested on: plasma acylcarnitines; experiment: Plasma metabolomics: acylcarnitine plasma levels
Protocol: Blood sampling was performed for analysis on plasma at the exact time-points described in the table below: Blood handling procedures: at each time point indicated in the table, a 6 mL blood sample was drawn into K2-EDTA coated tube. The blood samples were gently inverted a few times for complete mixing with the anticoagulant. The exact time of sample collection was recorded on the eCRF. Within 30 minutes following blood collection, each blood sample was centrifuged at 1500 g for 10 minutes at 4° C. 30 minutes after the centrifugation, the top layer of human plasma was transferred into 2 pre-labelled polypropylene tubes, containing approximately 1500 μL of plasma. Blood cells were not transferred. All sample tubes were clearly and appropriately labelled. Tubes were capped immediately from each time point and the plasma was be frozen in an upright position at approximately −80° C. for storage. […] Proprietary software was used to match ions to an in-house library of standards for metabolite identification and for metabolite quantitation by peak area integration. A total of 781 metabolites were quantified. […] The grey line in FIG. 11 corresponds to a fold change of 1, i.e. absence of effect. *P<0.05 correspond to a significant effect from D-1 (pre-dose) to D28, calculated after a repeated measures ANOVA. […]

[2] = tested on: genes associated with autophagy and mitophagy, mitochondrial biogenesis and dynamics, and fatty acid oxidation in skeletal muscle biopsies; experiment: rtPCR analysis of gene expression levels in skeletal muscle biopsies
Protocol: Muscle biopsies were collected before the meal from the vastus lateralis muscle of the right leg in order to perform ex vivo measurements. Muscle biopsies were collected on Day −1 and Day 28 at pre-dose under fasted state using the Bergström biopsy needle technique. The minimal amount of each muscle tissue sample was approximately 50 mg. One third of the tissue was used for gene expression (≈50 mg), and was further divided into two equal portions: one portion for RNA analysis (≈25 mg) and one portion for DNA analysis (≈25 mg), both in a Safe-lock Tubes 2.0 ml, Eppendorf (part no. 0030.120.094). Muscle tissue was snap frozen using liquid nitrogen immediately after collection and further, long term storage will be in a −80° C. freezer. The mRNA was analysed by microarray. Quantification of mtDNA over nuclear DNA provided another measure of mitochondrial abundance. The shipment was done in dry ice by specialized carrier. Temperatures were monitored using data logger during all transport. The method used has been validated according to good clinical laboratory practices (GCLP) and ICH guideline Q2(R1) (Validation of analytical procedures) by the corresponding service provider. Every sample was analysed in at least technical duplicates for housekeeping and target genes. A Ct value (threshold cycle), corresponding to the cycle at which the fluorescence signal reaches the amplification phase, was determined for every technical replicate and gene. The method of the 2^−ΔΔCt (Livak, K., J., and Schmittgen, T. D., Methods, 2001) was then applied to determine the relative expression of each target gene. rtPCR analysis was carried out on skeletal muscle biopsies of human subjects administered urolithin A or placebo daily for 28 days to determine the expression levels of specific genes associated with autophagy and mitophagy (LAMP2, ULK1, PIK3C3, MAP1LC3B, SQSTM1, PARK2), mitochondrial biogenesis and dynamics (SIRT1, PPARGC1A, PPARA, ESRRA, MFN1, MFN2, OPA1), and fatty acid oxidation (CPT1B, FABP3). FIG. 6 provides bar graphs showing the fold-change in gene expression levels from day −1 to day 28 for each gene for patients administered 250 mg/day or 1000 mg/day urolithin A, over placebo. The bar graphs represent gene expression data, expressed as a percentage of change over placebo, i.e. a value of 0% means that there is no difference between the dose and the placebo group while a value of 100% means that there is an increase in 100% over placebo value.

[3] = tested on: muscle and mitochondrial gene sets in vastus lateralis; experiment: Microarray analysis / Gene Set Enrichment Analysis of skeletal muscle biopsies
Protocol: Muscle biopsies were collected on Day −1 and Day 28 at pre-dose under fasted state using the Bergström biopsy needle technique. The minimal amount of each muscle tissue sample was approximately 50 mg. One third of the tissue was used for gene expression (≈50 mg), and was further divided into two equal portions: one portion for RNA analysis (≈25 mg) and one portion for DNA analysis (≈25 mg), both in a Safe-lock Tubes 2.0 ml, Eppendorf (part no. 0030.120.094). Muscle tissue was snap frozen using liquid nitrogen immediately after collection and further, long term storage will be in a −80° C. freezer. The mRNA was analysed by microarray. Quantification of mtDNA over nuclear DNA provided another measure of mitochondrial abundance. The shipment was done in dry ice by specialized carrier. Temperatures were monitored using data logger during all transport. Gene expression on available remaining muscle tissues samples was performed by microarrays. […] Microarray analysis was carried out on skeletal muscle biopsies of human subjects administered urolithin A or placebo daily for 28 days. Approximately 30,000 gene transcripts were quantified by microarray in muscle biopsies and compared (day 28 vs. day −1). Gene Set Enrichment Analysis was conducted on 6166 gene sets. […]

[4] = 1000 mg/day for 28 days, over placebo, P<0.05 Dunnett post-hoc

O=c1oc2cc(O)ccc2c2ccc(O)cc12 [Urolithin A] was tested, and the carnitine levels ([1]; 28 days treatment at 1000 mg) was “did not change”, the “plasma short chain up to long chain acylcarnitines” value ([1]; after 28 days treatment at 1000 mg, day −1 to day 28) was “overall decrease” and the “Ulk1 gene expression change” value ([2]; 1000 mg vs placebo, ANOVA p=0.0524, Dunnett p=0.0180) was “close to significant”. The “Ppargc1a gene expression change” value ([2]; 1000 mg vs placebo, ANOVA p=0.1026, Dunnett p=0.0673) was “close to significant”, the “Cpt1b gene expression change” value ([2]; 1000 mg vs placebo, ANOVA p=0.1362, Dunnett p=0.0805) was “close to significant” and the “Park2 gene expression change” value ([2]; 1000 mg vs placebo, ANOVA p=0.2504, Dunnett p=0.1500) was “close to significant”. The “expression of genes associated with autophagy, mitochondrial function, and/or fatty acid oxidation” value ([2]; 1000 mg/day for 28 days, day 28 vs day −1, over placebo) was “upregulation”, the “FABP3 gene expression (fatty acid oxidation-related)” value [2, 4] was “significant upregulation” and the “LAMP2 gene expression (autophagy/mitophagy-related)” value [2, 4] was “significant upregulation”. The “enrichment in GO_MITOCHONDRION genes expression” value ([3]; 1000 mg urolithin A group vs placebo group, 28 day treatment) was “significant” and the “mitochondrial and muscle gene sets expression (normalized enrichment score)” value ([3]; 1000 mg/day for 28 days, day 28 vs day −1, compared with placebo, FDR<0.25) was “significantly upregulated”.
